# From ChEMBL document CHEMBL5131549, “Discovery of a High Affinity Adenosine A1/A3 Receptor Antagonist with a Novel 7-Amino-pyrazolo[3,4-d]pyridazine Scaffold” (ACS Med Chem Lett, 2022)
# Tests used:
# [1] = Cytotoxicity against human WI-38 cells assessed as cell viability incubated for 72 to 96 hrs by MTT assay; assay type: toxicity, cell-based
# [2] = system: PC-3; assay: cells; details: Homo sapiens
# [3] = system: HCT-116; assay: cells; details: Homo sapiens
SMILES,IC50 [1] [µM],IC50 [2] [µM],IC50 [3] [µM]
O=C(Cc1ccccc1)Nc1nc2ccc(Cl)cc2c2nc(-c3ccco3)nn12,> 10,–,–
CCNC(=O)[C@H]1O[C@@H](n2cnc3c(N)ncnc32)[C@H](O)[C@@H]1O [NECA],> 10,> 10,> 10
